{"source": "ChEMBL document CHEMBL2010737", "about": "“Synthesis, modeling and functional activity of substituted styrene-amides as small-molecule CXCR7 agonists” (Eur J Med Chem, 2012)", "key": {"[1]": {"biological_target": "T1, Atypical chemokine receptor 3 (Homo sapiens, UniProt P25106)", "T1 sequence (P25106 whole entry)": "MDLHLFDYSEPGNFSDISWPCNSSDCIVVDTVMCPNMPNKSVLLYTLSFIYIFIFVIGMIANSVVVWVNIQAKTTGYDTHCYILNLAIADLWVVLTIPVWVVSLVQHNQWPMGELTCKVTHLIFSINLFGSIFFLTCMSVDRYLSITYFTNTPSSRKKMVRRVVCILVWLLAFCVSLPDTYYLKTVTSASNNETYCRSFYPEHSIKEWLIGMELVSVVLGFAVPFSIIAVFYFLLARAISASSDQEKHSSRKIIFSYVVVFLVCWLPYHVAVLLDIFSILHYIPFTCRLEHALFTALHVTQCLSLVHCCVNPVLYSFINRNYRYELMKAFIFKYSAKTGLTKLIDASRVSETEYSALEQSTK", "test": "Displacement of [125I]-CXCL12 from human CXCR7 expressed in HEK293 cells after 3 hrs", "assay_type": "cell-based"}, "[2]": {"biological_target": "T1, Atypical chemokine receptor 3", "test": "Agonist activity at human CXCR7 expressed in HEK293T cells co-expressing beta-arrestin2-YFP assessed as beta-arrestin2 recruitment after 1 hr by BRET assay", "assay_type": "functional, cell-based, HEK-293T", "settings": "for Activity: HEK-293T"}, "[3]": {"biological_target": "T1, Atypical chemokine receptor 3", "test": "Agonist activity at human CXCR7 expressed in HEK293 cells assessed as reduction of receptor surface expression at 10^-5 M after 1 hr by ELISA based internalization assay", "assay_type": "functional, cell-based"}, "[4]": {"biological_target": "T1, Atypical chemokine receptor 3", "test": "Agonist activity at human CXCR7 expressed in HEK293 cells assessed as reduction of receptor surface expression after 1 hr by ELISA based internalization assay", "assay_type": "functional, cell-based"}}, "note": "Active and inactive are the calls of the source. The rule behind the calls is not given here.", "data": [{"smiles": "COc1ccc(C(=O)N(CCC2CCCN2C)C/C(C)=C/c2ccccc2)c(OC)c1", "note": "(racemic)", "values": [{"measurement": "Ki", "setting": "[1]", "result": 1260, "unit": "nM"}]}, {"smiles": "COc1cc(C(=O)N(CCCN2CCOCC2)C/C(C)=C/c2ccccc2)cc(OC)c1OC", "values": [{"measurement": "Ki", "setting": "[1]", "result": 398, "unit": "nM"}]}, {"smiles": "COc1cc(C(=O)N(CCC2CCCN2C)C/C(C)=C/c2ccc(F)cc2F)cc(OC)c1OC", "note": "(racemic)", "values": [{"measurement": "Ki", "setting": "[1]", "result": 31.6, "unit": "nM"}]}, {"smiles": "COc1cc(C(=O)N(CCC2CCCN2C)C/C(C)=C/c2cc(F)cc(C(F)(F)F)c2)cc(OC)c1OC", "note": "(racemic)", "values": [{"measurement": "Ki", "setting": "[1]", "result": 5010, "unit": "nM"}, {"measurement": "EC50", "setting": "[2]", "result": 1400, "unit": "nM"}, {"measurement": "Activity", "setting": "[3]", "result": "Active"}]}, {"smiles": "COc1ccc(C(=O)N(CCC2CCCN2C)C/C(C)=C/c2ccccc2)cc1OC", "note": "(racemic)", "values": [{"measurement": "Ki", "setting": "[1]", "result": 25.1, "unit": "nM"}]}, {"smiles": "COc1ccc(C(=O)N(CCC2CCCN2C)C/C(C)=C/c2cc(F)cc(C(F)(F)F)c2)cc1OC", "note": "(racemic)", "values": [{"measurement": "Ki", "setting": "[1]", "result": 5010, "unit": "nM"}]}, {"smiles": "COc1cc(C(=O)N(CCCN2CCCCC2C)C/C(C)=C/c2ccccc2)cc(OC)c1OC", "note": "(racemic)", "values": [{"measurement": "Ki", "setting": "[1]", "result": 200, "unit": "nM"}]}, {"smiles": "COc1ccc(C(=O)N(CCC2CCCN2C)C/C(C)=C/c2cccc(F)c2)cc1OC", "note": "(racemic)", "values": [{"measurement": "Ki", "setting": "[1]", "result": 100, "unit": "nM"}]}, {"smiles": "COc1ccc(C(=O)N(CCC2CCCN2C)C/C(C)=C/c2ccccc2)cc1C", "note": "(racemic)", "values": [{"measurement": "Ki", "setting": "[1]", "result": 794, "unit": "nM"}]}, {"smiles": "C/C(=C\\c1ccccc1)CN(CCC1CCCN1C)C(=O)c1ccc2c(c1)OCCO2", "note": "(racemic)", "values": [{"measurement": "Ki", "setting": "[1]", "result": 794, "unit": "nM"}]}, {"smiles": "COc1cc(C(=O)N(CCC2CCCN2C)C/C(C)=C/c2ccc(F)cc2)cc(OC)c1OC", "note": "(racemic)", "values": [{"measurement": "Ki", "setting": "[1]", "result": 50.1, "unit": "nM"}]}, {"smiles": "COc1cc(C(=O)N(CCC2CCCN2C)C/C(C)=C/c2ccccc2)cc(OC)c1OC", "note": "(racemic)", "values": [{"measurement": "Ki", "setting": "[1]", "result": 15.8, "unit": "nM"}]}, {"smiles": "COc1cc(C(=O)N(CCC2CCCN2C)C/C(C)=C/c2ccccc2F)cc(OC)c1OC", "note": "(racemic)", "values": [{"measurement": "Ki", "setting": "[1]", "result": 7.94, "unit": "nM"}, {"measurement": "EC50", "setting": "[2]", "result": 1.6, "unit": "nM"}, {"measurement": "Activity", "setting": "[2]", "result": "Dose-dependent effect"}, {"measurement": "Activity", "setting": "[4]", "result": "Dose-dependent effect"}, {"measurement": "EC50", "setting": "[4]", "result": 14.1, "unit": "nM"}]}, {"smiles": "COc1cc(C(=O)N(CCCO)C/C(C)=C/c2ccccc2)cc(OC)c1OC", "values": [{"measurement": "Ki", "setting": "[1]", "result": 1580, "unit": "nM"}]}, {"smiles": "COc1ccc(C(=O)N(CCC2CCCN2C)C/C(C)=C/c2ccc(F)cc2F)cc1OC", "note": "(racemic)", "values": [{"measurement": "Ki", "setting": "[1]", "result": 100, "unit": "nM"}]}, {"smiles": "COc1ccc(C(=O)N(CCC2CCCN2C)C/C(C)=C/c2ccc(F)cc2)cc1OC", "note": "(racemic)", "values": [{"measurement": "Ki", "setting": "[1]", "result": 79.4, "unit": "nM"}]}, {"smiles": "C/C(=C\\c1ccc(F)cc1F)CN(CCC1CCCN1C)C(=O)c1ccc2c(c1)OCCO2", "note": "(racemic)", "values": [{"measurement": "Ki", "setting": "[1]", "result": 1580, "unit": "nM"}]}, {"smiles": "COc1cc(C(=O)N(C/C=C(\\C)c2ccccc2)CCC2CCCN2C)cc(OC)c1OC", "note": "(racemic)", "values": [{"measurement": "Ki", "setting": "[1]", "result": 12.6, "unit": "nM"}]}, {"smiles": "COc1ccc(/C=C(\\C)CN(CCC2CCCN2C)C(=O)c2ccc(OC)c(OC)c2)c(F)c1", "note": "(racemic)", "values": [{"measurement": "Ki", "setting": "[1]", "result": 1260, "unit": "nM"}]}, {"smiles": "COc1ccc(/C=C(\\C)CN(CCC2CCCN2C)C(=O)c2cc(OC)c(OC)c(OC)c2)c(F)c1", "note": "(racemic)", "values": [{"measurement": "Ki", "setting": "[1]", "result": 1260, "unit": "nM"}]}, {"smiles": "COc1ccc(C(=O)N(CCC2CCCN2C)C/C(C)=C/c2ccccc2F)cc1OC", "note": "(racemic)", "values": [{"measurement": "Ki", "setting": "[1]", "result": 20, "unit": "nM"}, {"measurement": "EC50", "setting": "[2]", "result": 1, "unit": "nM"}, {"measurement": "Activity", "setting": "[2]", "result": "Dose-dependent effect"}, {"measurement": "Activity", "setting": "[4]", "result": "Dose-dependent effect"}, {"measurement": "EC50", "setting": "[4]", "result": 23.7, "unit": "nM"}]}, {"smiles": "COc1cc(C(=O)N(CCC2CCCN2C)C/C(C)=C/c2cccc(F)c2)cc(OC)c1OC", "note": "(racemic)", "values": [{"measurement": "Ki", "setting": "[1]", "result": 79.4, "unit": "nM"}]}, {"smiles": "COc1cc(C(=O)N(C/C=C/c2ccccc2)CCC2CCCN2C)cc(OC)c1OC", "note": "(racemic)", "values": [{"measurement": "Ki", "setting": "[1]", "result": 794, "unit": "nM"}]}, {"smiles": "C/C(=C\\c1ccc(F)cc1F)CN(CCC1CCCN1C)C(=O)c1ccc2c(c1)OCO2", "note": "(racemic)", "values": [{"measurement": "Ki", "setting": "[1]", "result": 3160, "unit": "nM"}]}]}
